The results in this text go back to US10633419B2, “Immunomodulators” (BRISTOL-MYERS SQUIBB COMPANY, priority 2014, dated 2020).

Positions of bridges follow the written chain, without caps; N, C: chain ends. Non-standard residues stand in square brackets, D forms with d. Residues, ends and D or L forms follow the SMILES beside them. ξ: configuration not given here. *: point of attachment. εLys(α-Octadecanedioyl) = O=C(O)CCCCCCCCCCCCCCCCC(=O)N[C@@H](CCCCN*)C(=O)O; Dap(Nα-HOOC(CH2)16CO)OH = O=C(O)CCCCCCCCCCCCCCCCC(=O)N[C@@H](CN*)C(=O)O; X6 = O=C(O)CCCCCCCCCCCCCCCCC(=O)N[C@@H](CCC(=O)NCCCOCCOCCOCCCN*)C(=O)O; Trp(1-CH2COOH) = N[C@@H](Cc1cn(CC(=O)O)c2ccccc12)C(=O)O; ξPro(4R-OH) = O=C(O)C1C[C@@H](O)CN1; PEG6 = NCCOCCOCCOCCOCCOCCOCCC(=O)O; Hyp = O=C(O)[C@@H]1C[C@@H](O)CN1; NMeNle = CCCC[C@H](NC)C(=O)O; NMeA = CN[C@@H](C)C(=O)O; Dab = NCC[C@H](N)C(=O)O; Dap = NC[C@H](N)C(=O)O; Sar = CNCC(=O)O

For orientation: IC50 means the concentration needed to halve the response being measured.

The target of one assay is T1, PD-L1 (Homo sapiens, UniProt Q9NZQ7).
T1 construct: hPDL1(19-239)-TVMV-His; made in house; host or cells: HEK293T
T1 sequence (Q9NZQ7 with tags, fused parts or gaps): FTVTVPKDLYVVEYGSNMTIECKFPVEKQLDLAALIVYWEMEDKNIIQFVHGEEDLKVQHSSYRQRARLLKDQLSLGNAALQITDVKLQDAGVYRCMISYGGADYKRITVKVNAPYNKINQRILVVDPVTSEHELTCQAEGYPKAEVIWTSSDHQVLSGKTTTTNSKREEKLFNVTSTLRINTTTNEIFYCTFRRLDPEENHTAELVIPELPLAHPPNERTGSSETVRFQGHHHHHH
Put plainly: PD-1/PD-L1 Homogenous Time-Resolved Fluorescence (HTRF) binding assay (PD-1-Ig/PD-L1-His). The following applies: inhibition of PD-1-Ig binding to PD-L1-TVMV-His; value given as number; read-out: HTRF IC50. The method in brief: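 Inhibitors pre-incubated 15 min with PD-L1-His (10 nM final), then PD-1-Ig (20 nM final) added for 15 min in dPBS/0.1% BSA/0.05% Tween-20. Eu-cryptate anti-Ig (1 nM) and APC anti-His (20 nM) added, 30 min equilibration, 665/620 nm HTRF ratio read.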
With `CCCC[C@H]1C(=O)N(C)[C@@H](CCCC)C(=O)N[C@@H](CC(C)C)C(=O)N[C@H](C(=O)NCC(=O)N[C@@H](CC(=O)NCCCOCCOCCOCCCNC(=O)CC[C@H](NC(=O)CCCCCCCCCCCCCCCCC(=O)O)C(=O)O)C(=O)O)CSCC(=O)N[C@@H](Cc2ccc(O)cc2)C(=O)N(C)[C@@H](C)C(=O)N[C@@H](CC(N)=O)C(=O)N2CCC[C@H]2C(=O)N[C@@H](Cc2c[nH]cn2)C(=O)N[C@@H](CCC(=O)O)C(=O)N2C[C@H](O)C[C@H]2C(=O)N[C@@H](Cc2c[nH]c3ccccc23)C(=O)N[C@@H](CCN)C(=O)N[C@@H](Cc2cn(CC(=O)O)c3ccccc23)C(=O)N1C` [Example 11179] ({CH2CO}-Y[NMeA]NPHE[Hyp]W[Dab][Trp(1-CH2COOH)][NMeNle][NMeNle]LCGD(X6)-OH; thioether N-14), the concentration for half-maximal inhibition (IC50) came to 3 nM.

Still in this assay, the particulars now being: inhibition of PD-1-Ig binding to PD-L1-TVMV-His; value given as range class; read-out: HTRF IC50.
`CCCC[C@H]1C(=O)N(C)[C@@H](CCCC)C(=O)N[C@@H](CCC(=O)O)C(=O)N[C@H](C(=O)NCC(=O)N[C@@H](CC(=O)NCCCOCCOCCOCCCNC(=O)CC[C@H](NC(=O)CCCCCCCCCCCCCCCCC(=O)O)C(=O)O)C(=O)O)CSCC(=O)N[C@@H](Cc2ccc(O)cc2)C(=O)N(C)[C@@H](C)C(=O)N[C@@H](CC(=O)O)C(=O)N(C)CC(=O)N[C@@H](Cc2c[nH]cn2)C(=O)N[C@@H](CCCCN)C(=O)N2C[C@H](O)C[C@H]2C(=O)N[C@@H](Cc2c[nH]c3ccccc23)C(=O)N[C@@H](CCN)C(=O)N[C@@H](Cc2cn(CC(=O)O)c3ccccc23)C(=O)N1C` [Example 11174] ({CH2CO}-Y[NMeA]D[Sar]HK[Hyp]W[Dab][Trp(1-CH2COOH)][NMeNle][NMeNle]ECGD(X6)-OH; thioether N-14): the IC50 lay in the range of 10 to 99 nM. On the same count and under the same terms, as for `CCCC[C@H]1C(=O)N(C)[C@@H](CCCC)C(=O)N[C@@H](CC(C)C)C(=O)N[C@H](C(=O)NCC(=O)N[C@@H](CC(=O)NCCCC[C@H](NC(=O)CCCCCCCCCCCCCCCCC(=O)O)C(=O)O)C(=O)O)CSCC(=O)N[C@@H](Cc2ccc(O)cc2)C(=O)N(C)[C@@H](C)C(=O)N[C@@H](CC(N)=O)C(=O)N2CCC[C@H]2C(=O)N[C@@H](CN)C(=O)N[C@@H](CC(C)C)C(=O)N2C[C@H](O)C[C@H]2C(=O)N[C@@H](Cc2c[nH]c3ccccc23)C(=O)N[C@@H](CCN)C(=O)N[C@@H](Cc2cn(CC(=O)O)c3ccccc23)C(=O)N1C` [Example 11176] ({CH2CO}-Y[NMeA]NP[Dap]L[Hyp]W[Dab][Trp(1-CH2COOH)][NMeNle][NMeNle]LCGD(εLys(α-Octadecanedioyl))-OH; thioether N-14), the figure is 10 to 99 nM; as for `CCCC[C@H]1C(=O)N(C)[C@@H](CCCC)C(=O)N[C@@H](CC(C)C)C(=O)N[C@H](C(=O)NCC(=O)N[C@@H](CCC(=O)NCCCC[C@H](NC(=O)CCCCCCCCCCCCCCCCC(=O)O)C(=O)O)C(=O)O)CSCC(=O)N[C@@H](Cc2ccc(O)cc2)C(=O)N(C)[C@@H](C)C(=O)N[C@@H](CC(N)=O)C(=O)N2CCC[C@H]2C(=O)N[C@@H](CN)C(=O)N[C@@H](CC(C)C)C(=O)N2C[C@H](O)C[C@H]2C(=O)N[C@@H](Cc2c[nH]c3ccccc23)C(=O)N[C@@H](CCN)C(=O)N[C@@H](Cc2cn(CC(=O)O)c3ccccc23)C(=O)N1C` [Example 11177] ({CH2CO}-Y[NMeA]NP[Dap]L[Hyp]W[Dab][Trp(1-CH2COOH)][NMeNle][NMeNle]LCGE(εLys(α-Octadecanedioyl))-OH; thioether N-14), 100 to 1600 nM; as for `CCCC[C@H]1C(=O)N(C)[C@@H](CCCC)C(=O)N[C@@H](CC(C)C)C(=O)N[C@H](C(=O)NCC(=O)N[C@@H](CC(=O)NCCCOCCOCCOCCCNC(=O)CC[C@H](NC(=O)CCCCCCCCCCCCCCCCC(=O)O)C(=O)O)C(=O)O)CSCC(=O)N[C@@H](Cc2ccc(O)cc2)C(=O)N(C)[C@@H](C)C(=O)N[C@@H](CC(=O)O)C(=O)N2CCC[C@H]2C(=O)N[C@@H](CN)C(=O)N[C@@H](CCC(=O)O)C(=O)N2C[C@H](O)C[C@H]2C(=O)N[C@@H](Cc2c[nH]c3ccccc23)C(=O)N[C@@H](CCN)C(=O)N[C@@H](Cc2cn(CC(=O)O)c3ccccc23)C(=O)N1C` [Example 11178] ({CH2CO}-Y[NMeA]DP[Dap]E[Hyp]W[Dab][Trp(1-CH2COOH)][NMeNle][NMeNle]LCGD(X6)-OH; thioether N-14), 0.3 to 9.9 nM. Same read-out and setting: as for `CCCC[C@H]1C(=O)N(C)[C@@H](CCCC)C(=O)N[C@@H](CC(C)C)C(=O)N[C@H](C(=O)NCCOCCOCCOCCOCCOCCOCCC(=O)NC[C@H](NC(=O)CCCCCCCCCCCCCCCCC(=O)O)C(=O)O)CSCC(=O)N[C@@H](Cc2ccc(O)cc2)C(=O)N(C)[C@@H](C)C(=O)N[C@@H](CC(N)=O)C(=O)N2CCC[C@H]2C(=O)N[C@@H](CN)C(=O)N[C@@H](CC(C)C)C(=O)N2C[C@H](O)C[C@H]2C(=O)N[C@@H](Cc2c[nH]c3ccccc23)C(=O)N[C@@H](CCN)C(=O)N[C@@H](Cc2cn(CC(=O)O)c3ccccc23)C(=O)N1C` [Example 11180] ({CH2CO}-Y[NMeA]NP[Dap]L[Hyp]W[Dab][Trp(1-CH2COOH)][NMeNle][NMeNle]LC[PEG6]-{Dap(Nα-HOOC(CH2)16CO)OH}; thioether N-14), the figure is 10 to 99 nM; as for `CCCC[C@H]1C(=O)N(C)[C@@H](CCCC)C(=O)N[C@@H](CC(C)C)C(=O)N[C@H](C(=O)NCC(=O)N[C@@H](CC(=O)O)C(=O)NCCOCCOCCOCCOCCOCCOCCC(=O)NC[C@H](NC(=O)CCCCCCCCCCCCCCCCC(=O)O)C(=O)O)CSCC(=O)N[C@@H](Cc2ccc(O)cc2)C(=O)N(C)[C@@H](C)C(=O)N[C@@H](CC(N)=O)C(=O)N2CCC[C@H]2C(=O)N[C@@H](CN)C(=O)N[C@@H](CC(C)C)C(=O)N2C[C@H](O)C[C@H]2C(=O)N[C@@H](Cc2c[nH]c3ccccc23)C(=O)N[C@@H](CCN)C(=O)N[C@@H](Cc2cn(CC(=O)O)c3ccccc23)C(=O)N1C` [Example 11181] ({CH2CO}-Y[NMeA]NP[Dap]L[Hyp]W[Dab][Trp(1-CH2COOH)][NMeNle][NMeNle]LCGD[PEG6]-{Dap(Nα-HOOC(CH2)16CO)OH}; thioether N-14), 100 to 1600 nM; as for `CCCC[C@H]1C(=O)N(C)[C@@H](CCCC)C(=O)N[C@@H](CC(C)C)C(=O)N[C@H](C(=O)NCC(=O)N[C@@H](CCC(=O)O)C(=O)NCCOCCOCCOCCOCCOCCOCCC(=O)NC[C@H](NC(=O)CCCCCCCCCCCCCCCCC(=O)O)C(=O)O)CSCC(=O)N[C@@H](Cc2ccc(O)cc2)C(=O)N(C)[C@@H](C)C(=O)N[C@@H](CC(N)=O)C(=O)N2CCC[C@H]2C(=O)N[C@@H](CN)C(=O)N[C@@H](CC(C)C)C(=O)N2C[C@H](O)CC2C(=O)N[C@@H](Cc2c[nH]c3ccccc23)C(=O)N[C@@H](CCN)C(=O)N[C@@H](Cc2cn(CC(=O)O)c3ccccc23)C(=O)N1C` (stereo partly drawn) [Example 11182] ({CH2CO}-Y[NMeA]NP[Dap]L[ξPro(4R-OH)]W[Dab][Trp(1-CH2COOH)][NMeNle][NMeNle]LCGE[PEG6]-{Dap(Nα-HOOC(CH2)16CO)OH}; thioether N-14), 100 to 1600 nM.

For the molecule `C=C1N[C@@H](Cc2c[nH]c3ccccc23)C(=O)N[C@@H](CCN)C(=O)N[C@@H](Cc2cn(CC(=O)O)c3ccccc23)C(=O)N(C)[C@@H](CCCC)C(=O)N(C)[C@@H](CCCC)C(=O)N[C@@H](CC(C)C)C(=O)N[C@H](C(=O)NCC(=O)N[C@@H](CC(=O)NCCOCCOCCOCCOCCOCCOCCC(=O)NC[C@H](NC(=O)CCCCCCCCCCCCCCCCC(=O)O)C(=O)O)C(=O)O)CSCC(=O)N[C@@H](Cc2ccc(O)cc2)C(=O)N(C)[C@@H](C)C(=O)N[C@@H](CC(N)=O)C(=O)N2CCC[C@H]2C(=O)N[C@@H](CN)C(=O)N[C@@H](CC(C)C)C(=O)N2C[C@H](O)C[C@@]12O` [Example 11183], the IC50 is 100 to 1600 nM.
